Earlier results, collected in US12357578B2, “Ibuprofen and famotidine tablet” (APPCO PHARMA LLC, priority 2020, dated 2025).

Row | Solubility in organic solvents (in words) (organic solvents such as ethanol and acetone) | Solubility in water (water) | Solubility in water (in words) (water) | Solubility in ethanol (in words) (ethanol) | Solubility in glacial acetic acid (in words) (glacial acetic acid) | Solubility in methanol (in words) (methanol) | Compound
1 | readily soluble | < 1000 µg/mL | very slightly soluble |  |  |  | CC(C)Cc1ccc(C(C)C(=O)O)cc1 (racemic) [Ibuprofen, (±)-2-(p-isobutylphenyl) propionic acid]
2 |  |  | very slightly soluble | practically insoluble | freely soluble | slightly soluble | NC(N)=Nc1nc(CSCCC(N)=NS(N)(=O)=O)cs1 [Famotidine]
